16 compounds from ChEMBL document CHEMBL3217575, “Design, synthesis and molecular modelling of novel methyl[4-oxo-2-(aroylimino)-3-(substituted phenyl)thiazolidin-5-ylidene]acetates as potent and selective aldose reductase inhibitors” (Medchemcomm, 2012) can be followed below.

Assay [1] can be described thus: Inhibition of purified calf eye lens ALR2 preincubated for 10 mins by UV spectrophotometry. It is filed as tissue-based, Bos taurus, Lens of camera-type eye.
For assay [2], the species on record is Bos taurus. Nature of the assay: Inhibition of purified calf kidney ALR1 at 0.6 mM preincubated for 10 mins by UV spectrophotometry. It is filed as tissue-based.
Assay [3] is filed under the species Bos taurus. Nature of the assay: Inhibition of purified calf eye lens ALR2 at 0.6 mM preincubated for 10 mins by UV spectrophotometry. The conditions noted are these: Lens of camera-type eye. Format: tissue-based.
A short description of assay [4]: Inhibition of purified calf kidney ALR1 preincubated for 10 mins by UV spectrophotometry. It is filed as tissue-based, Bos taurus.

The structures appear in SMILES notation.

As a reminder, the IC50 is the midpoint of a concentration-inhibition curve. Read a low IC50 as greater potency in that assay. In assay [1], `O=C1NC(=O)[C@@]2(CCOc3ccc(F)cc32)N1` [SORBINIL] displayed an IC50 of 3.14 µM. That is a single-digit micromolar value.
By inhibition is commonly meant how much of the control response was suppressed. For the compound `COC(=O)/C=C1/S/C(=N\C(=O)c2ccccc2C)N(c2cccc(OC)c2)C1=O`, the inhibition in assay [2] worked out at 27.8%; in assay [3], 43.8%.
For `COC(=O)/C=C1/S/C(=N\C(=O)c2ccccc2)N(c2cccc3ccccc23)C1=O`, the inhibition in assay [2] worked out at 44.3%. Besides, the IC50 in assay [1] was found to be 3.19 µM.
As for `COC(=O)/C=C1/S/C(=N\C(=O)c2ccc(Cl)cc2)N(c2cccc(Cl)c2Cl)C1=O`, the inhibition in assay [2] was found to be 15.3%. The midpoint of inhibition in assay [1], the IC50, lay at 12.4 µM.
With `COC(=O)/C=C1/S/C(=N\C(=O)c2ccc(C)cc2)N(c2cccc(Cl)c2)C1=O`, the inhibition in assay [2] came to 43.5%; in assay [3] it was 44.3%.
In assay [2], `COC(=O)/C=C1/S/C(=N\C(=O)c2cccc(C)c2)N(c2ccccc2OC)C1=O` returned an inhibition of 32.4%. This compound also gave an IC50 in assay [1] of 6.26 µM.
In turn, `COC(=O)/C=C1/S/C(=N\C(=O)c2ccccc2)N(c2ccccc2OC)C1=O` displayed an inhibition in assay [2] of 41.2%. In addition, the IC50 in assay [1] stood at 2.82 µM.
`COC(=O)/C=C1/S/C(=N\C(=O)c2ccccc2Cl)N(c2ccccc2)C1=O`: the inhibition in assay [2] is 19.2%. This compound also registered an IC50 in assay [1] of 5.21 µM.
`COC(=O)/C=C1/S/C(=N\C(=O)c2ccc([N+](=O)[O-])cc2)N(c2ccccc2F)C1=O`: in assay [2], the inhibition stood at 49.5%. Moreover, the IC50 in assay [1] is 36.1 µM.
For `COC(=O)/C=C1/S/C(=N\C(=O)c2cccc(C)c2)N(c2ccccc2)C1=O`, the inhibition in assay [2] is 31.5%. Moreover, in assay [1], the IC50 stood at 9.75 µM.
As for `CCCC(CCC)C(=O)O` [VALPROIC ACID], inhibition in assay [4] was half-maximal at 57.4 µM (IC50).
For the compound `COC(=O)/C=C1/S/C(=N\C(=O)c2ccc([N+](=O)[O-])cc2)N(c2ccc(F)c(Cl)c2)C1=O`, the inhibition was 38.4% in assay [2] and 47.7% in assay [3].
Consider `COC(=O)/C=C1/S/C(=N\C(=O)c2cccc(C)c2)N(c2cccc(Cl)c2)C1=O`, for which, in assay [2], the inhibition was found to be 42.6%. In assay [1], this compound displayed an IC50 of 4.52 µM.
In the case of `COC(=O)/C=C1/S/C(=N\C(=O)c2ccccc2Br)N(c2cccc(Cl)c2Cl)C1=O`, the inhibition in assay [2] came to 51.4%. Moreover, in assay [1], half-maximal inhibition (IC50) required 9.42 µM.
In the case of `COC(=O)/C=C1/S/C(=N\C(=O)c2ccc3ccccc3c2)N(c2ccccc2)C1=O`, the inhibition in assay [2] was 49.1%. In addition, the half-inhibitory concentration (IC50) in assay [1] was determined as 5.12 µM.
As to `COC(=O)/C=C1/S/C(=N\C(=O)c2ccccc2Br)N(c2ccc(Cl)cc2Cl)C1=O`, the inhibition in assay [2] came to 72.7%. Besides, the IC50 in assay [1] stood at 2.54 µM.
